Results from ChEMBL document CHEMBL1201862, “PubChem BioAssay data set” (2004).
The source made the active and inactive calls.

Key:
[1] = A cytotoxicity screen of small molecule inhibitors of the PhoP region in Salmonella typhi identified in the primary screen. [Related pubchem assays: 1850, 1864, 1985 ]; format: functional
cells [2] = format: functional, cell-based
cells [3] = format: functional, cell-based; remark: listed apart in the source
Leucine aminopeptidase = molecular target: T1, Leucine aminopeptidase (Plasmodium falciparum 3D7, UniProt Q8IL11); assay: P. falciparum M17LAP inhibitors, primary screen, biochemical, fluorogenic H-Leu-NHMec substrate, 1536-well (AID 1619); format: functional
T1 sequence (Q8IL11 whole entry): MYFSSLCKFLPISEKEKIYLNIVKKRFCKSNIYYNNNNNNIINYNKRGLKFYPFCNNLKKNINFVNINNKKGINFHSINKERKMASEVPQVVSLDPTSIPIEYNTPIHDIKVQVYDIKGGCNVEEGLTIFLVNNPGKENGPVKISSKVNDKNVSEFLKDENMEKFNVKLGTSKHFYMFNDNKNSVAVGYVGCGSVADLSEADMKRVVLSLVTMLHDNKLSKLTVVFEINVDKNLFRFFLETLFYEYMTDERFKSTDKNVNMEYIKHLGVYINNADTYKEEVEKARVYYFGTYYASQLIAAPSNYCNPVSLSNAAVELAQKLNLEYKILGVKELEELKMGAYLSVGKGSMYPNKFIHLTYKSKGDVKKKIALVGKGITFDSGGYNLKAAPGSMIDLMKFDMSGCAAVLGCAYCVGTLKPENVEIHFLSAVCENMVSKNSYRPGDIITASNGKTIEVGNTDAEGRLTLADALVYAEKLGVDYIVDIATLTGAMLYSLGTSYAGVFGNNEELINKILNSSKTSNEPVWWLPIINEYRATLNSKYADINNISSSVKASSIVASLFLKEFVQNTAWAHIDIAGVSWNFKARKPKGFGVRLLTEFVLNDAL

[4] = viability of HCT116 lacking mutant beta-catenin – cell-based, human colon tumor, dose response (AID 1045); format: functional;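 note: HCT116 colon tumor cells with beta catenin knocked out; cells exposed to compound for 60 hours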
[5] = viability of PTEN-deleted HCT116 cells – cell-based, HCT116 PTEN knockout, dose response (AID 1047); format: functional;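 note: HCT116 colon tumor cells with PTEN knocked out; cells exposed to compound for 60 hours before readout; potency for loss of cell viability measured by luminescence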
[6] = NIH3T3 cell viability loss – ATP luminescence, mouse fibroblasts, counter-screen, dose response (AID 2010); format: functional, cell-based;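 note: cells exposed to compound for about 90 hours before reading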
[7] = Trypanosoma cruzi growth suppression in host cells – NIH3T3 host cells, beta-gal luminescence, confirmation (AID 2044); format: functional, cell-based;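 note: intracellular parasites grown in NIH/3T3 mouse fibroblasts as host cells; luminescent beta-galactosidase reporter signal from transgenic T. cruzi replicating inside host cells; inhibitors lower the luminescence signal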
[8] = molecular target: T2, Ubiquitin-conjugating enzyme E2 N (Homo sapiens, UniProt P61088); format: functional;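 note: Dose-response confirmation in a TR-FRET assay detecting UBC13-driven polyubiquitin chain formation, inhibition measured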
T2 sequence (P61088 whole entry): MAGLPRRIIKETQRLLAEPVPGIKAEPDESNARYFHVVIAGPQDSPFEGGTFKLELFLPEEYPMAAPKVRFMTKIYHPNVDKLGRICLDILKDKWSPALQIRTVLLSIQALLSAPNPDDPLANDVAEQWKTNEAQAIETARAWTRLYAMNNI

[9] = molecular target: T3, Calpain-2 catalytic subunit (Sus scrofa, UniProt P43367); assay: m-calpain protease blockers, concentration series – biochemical, fluorogenic peptide substrate, dose response (AID 1420); format: functional
T3 sequence (P43367 whole entry): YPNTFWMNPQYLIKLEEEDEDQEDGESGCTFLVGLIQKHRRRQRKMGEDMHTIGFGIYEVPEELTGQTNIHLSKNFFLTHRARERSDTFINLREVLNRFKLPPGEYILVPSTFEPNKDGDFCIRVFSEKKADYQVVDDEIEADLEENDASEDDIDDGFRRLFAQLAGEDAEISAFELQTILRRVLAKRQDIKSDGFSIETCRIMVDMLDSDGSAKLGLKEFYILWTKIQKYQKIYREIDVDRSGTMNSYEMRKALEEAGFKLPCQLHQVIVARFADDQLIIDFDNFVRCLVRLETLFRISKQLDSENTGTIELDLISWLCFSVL

[10] = microbe, parasite or virus in culture; format: functional; conditions: Mycobacterium tuberculosis
[11] = molecular target: T4, DNA repair protein RAD52 homolog (Homo sapiens, UniProt P43351); format: functional, biochemical
T4 sequence (P43351 whole entry): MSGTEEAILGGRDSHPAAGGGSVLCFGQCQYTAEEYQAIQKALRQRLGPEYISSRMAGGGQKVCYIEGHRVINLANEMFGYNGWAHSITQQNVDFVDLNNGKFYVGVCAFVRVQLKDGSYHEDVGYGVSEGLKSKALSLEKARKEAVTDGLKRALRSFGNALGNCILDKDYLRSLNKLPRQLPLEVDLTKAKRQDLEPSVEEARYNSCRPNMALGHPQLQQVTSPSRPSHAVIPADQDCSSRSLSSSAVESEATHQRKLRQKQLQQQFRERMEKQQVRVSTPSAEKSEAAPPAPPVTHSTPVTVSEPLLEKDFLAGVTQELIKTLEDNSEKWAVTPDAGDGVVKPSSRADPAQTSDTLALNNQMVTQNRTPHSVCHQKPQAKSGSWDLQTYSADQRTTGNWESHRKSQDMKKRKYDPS

[12] = Luminescence Cell-Based Dose Retest to Confirm Inhibitors of Cancer Stem Cells. [Related pubchem assays (depositor defined):AID2717, AID2721]; format: functional; conditions: Homo sapiens
[13] = fluconazole-exposed Candida albicans growth modulators – fluorescence, retest, confirmation (AID 2467); format: functional, cell-based
[14] = NIH-3T3 fibroblast cytotoxicity, dose response, cytotoxicity control, cell-based, fluorescence, Alamar Blue, secondary assay (AID 2327); format: functional;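 note: NIH-3T3 mouse fibroblasts cultured with fluconazole at 8 µg/mL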
INS1 = assay: INS-1E survival protection against cytokine death – cell-based, luminescence, retest, dose response (AID 449756); format: functional; conditions: Rattus norvegicus;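 note: cell death triggered by IL-1 beta plus TNF-alpha plus IFN-gamma mixture; protective hits raise ATP signal compared with cytokine alone wells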

**Q.** For `CCCCNC(=O)CCC(=O)Nc1ccc2nc(N3CCC(C)CC3)cc(C)c2c1`, which EC50 [1] is on record?
**A.** > 50 µM (active)

**Q.** For `O=C(CN(Cc1ccc(F)cc1)C(=O)CCC(=O)Nc1nccs1)NCC1CCCO1` (stereo not given), which EC50 (cells [2]) is on record?
**A.** 35.3 µM (active)

**Q.** And the EC50 (cells [3])?
**A.** > 350 µM (not active)

**Q.** What does the source list for `CCCCCC(=O)NNC(=S)NC(=O)c1cccc([N+](=O)[O-])c1`?
**A.** EC50 (cells [2]): > 350 µM (not active); IC50 (Leucine aminopeptidase): 24.4 µM (active); EC50 (cells [3]): > 350 µM (not active)

**Q.** Which EC50 (cells [2]) does the source give for `CN(C)c1ccc(CNC(=O)CCS(=O)(=O)c2ccc3c(c2)oc(=O)n3C)cc1` here?
**A.** > 350 µM (not active)

**Q.** What about the EC50 (cells [3]) of the same molecule?
**A.** > 350 µM (not active)

**Q.** For `CCc1ccc(OCC(O)CN2CCC(CN3C(=O)c4cccc5cccc(c45)C3=O)CC2)cc1` (stereo not given), which EC50 [4] is on record?
**A.** 5.43 µM (active)

**Q.** What about the EC50 [5] of the same molecule?
**A.** 6.53 µM (active)

**Q.** And the EC50 [6]?
**A.** > 60 µM (not active)

**Q.** And the EC50 [7]?
**A.** 1.84 µM (active)

**Q.** And the IC50 [8]?
**A.** > 20 µM (inactive)

**Q.** With `O=C(Oc1ccc2c(c1)OCO2)C12CC3CC(CC(C3)C1)C2` as the molecule, how does the IC50 [9] read?
**A.** 5.49 µM (not active)

**Q.** For `COc1ccccc1C1c2ccc3ccccc3c2Oc2ncn(CCN(C)C)c(=N)c21` (stereo not given), which CC50 [10] is on record?
**A.** 5.8 µM (active)

**Q.** And the AC50 [11]?
**A.** 20.6 µM (active)

**Q.** What about the AC50 [12] of the same molecule?
**A.** 2.72 µM (active)

**Q.** With `O=C(CN1C(=O)S/C(=C/C=C/c2ccccc2)C1=O)Nc1ccc(C(=O)O)cc1` as the molecule, how does the IC50 (Leucine aminopeptidase) read?
**A.** 24.5 µM (active)

**Q.** For `O=C(CSc1cccc[n+]1[O-])c1cc(Cl)ccc1Cl`, which EC50 [13] is on record?
**A.** > 38 µM (not active)

**Q.** What about the EC50 [14] of the same molecule?
**A.** 35.8 µM (active)

**Q.** And the IC50 [9]?
**A.** > 50 µM (not active)

**Q.** For `CSCCC(NC(=O)c1c(C)oc2c1CCCC2)C(=O)O` (stereo not given), which IC50 (Leucine aminopeptidase) is on record?
**A.** 35.9 µM (active)

**Q.** Which EC50 (cells [2]) does the source give for `Cc1cc(OCC(=O)Nc2ccc3c(c2)OCCO3)cc(C)c1Cl` here?
**A.** > 350 µM (not active)

**Q.** And the EC50 (cells [3])?
**A.** > 350 µM (not active)

**Q.** For `CCN(CC)CCNc1nc(-c2cccs2)c(CC(=O)O)s1`, which AC50 [11] is on record?
**A.** 14 µM (active)

**Q.** For `CCOC(=O)c1c(NC(=O)c2cc(-c3ccc(Cl)s3)nc3ccccc23)sc(C(N)=O)c1C`, which EC50 [4] is on record?
**A.** 7.35 µM (active)

**Q.** And the EC50 [5]?
**A.** 5.74 µM (active)

**Q.** And the AC50 (INS1)?
**A.** 7.98 µM (active)

**Q.** For `S=C(Nc1ccccc1Cl)N(Cc1ccccc1)Cc1ccccn1`, which EC50 [1] is on record?
**A.** > 50 µM (active)

**Q.** For `O=C(CN1C(=O)CCSc2ccccc21)Nc1ccc2c(c1)OCCO2`, which IC50 (Leucine aminopeptidase) is on record?
**A.** 16.1 µM (active)
